Article PMC8776995 (Frontiers in Chemistry, 2022)
“And” between values parts separate entries of the source, which are not always exact repeats. Equal values may be shown once. Read-outs that look alike come from different tables or passages of the source.

Tests used:
PC-9 cells = assay: CCK-8 antiproliferation assay, PC-9; conditions: for IC50 / inhibition at 8 µM / inhibition at 16 µM: Homo sapiens; for IC50: PC-9, 48 h, read-out: IC50 (μM) PC-9; for inhibition at 8 µM: PC-9, read-out: Inhibitory efficacy, PC-9, 8uM, single repeats (Repeat 1-3), given as fraction; for inhibition at 16 µM: PC-9, read-out: Inhibitory efficacy, PC-9, 16uM, single repeats (Repeat 1-3), given as fraction; for Inhibitory efficacy: single repeats (Repeat 1-3), given as fraction
wild-type EGFR = wild-type EGFR (Homo sapiens, UniProt P00533); assay: EGFR kinase assay (ELISA); conditions: for IC50: ELISA, 3 μmol/L ATP; for inhibition at 100 fM: concentration 0.0001 nM (reference for normalisation); for inhibition at 100 fM / inhibition at 30 pM / Inhibition / inhibition at 0.0003 µM / inhibition at 0.003 µM / inhibition at 0.03 µM / inhibition at 0.3 µM / inhibition at 3 µM / inhibition at 30 µM: one value per replicate column; for A450: raw ELISA absorbance
H1975 cells = assay: CCK-8 antiproliferation assay, H1975; conditions: for Inhibitory efficacy: H1975 cells; for IC50: NCI-H1975, 48 h, read-out: IC50 (μM) H1975, CCK-8, 48 h, average ± SD of three independent experiments
H460 cells = assay: CCK-8 antiproliferation assay, H460; conditions: for Inhibitory efficacy: H460 cells; for IC50: NCI-H460, 48 h, read-out: IC50 (μM) H460, CCK-8, 48 h, average ± SD of three independent experiments
A549 cells = assay: CCK-8 antiproliferation assay, A549; conditions: for Inhibitory efficacy: A549 cells; for IC50: A549, 48 h, read-out: IC50 (μM) A549, CCK-8, 48 h, average ± SD of three independent experiments
[1] = concentration 0.03 nM, 3e-05 µM
[2] = concentration 0.3 nM, 0.0003 µM
[3] = 2uM, given as fraction, Repeat 1-3
[4] = 4uM, given as fraction, Repeat 1-3
[5] = 8uM, given as fraction, Repeat 1-3
[6] = 16uM, given as fraction, Repeat 1-3
[7] = Homo sapiens, NCI-H1975, read-out: Inhibitory efficacy, H1975 cells, 2uM, given as fraction, Repeat 1-3
[8] = Homo sapiens, NCI-H1975, read-out: Inhibitory efficacy, H1975 cells, 4uM, given as fraction, Repeat 1-3
[9] = Homo sapiens, NCI-H1975, read-out: Inhibitory efficacy, H1975 cells, 8uM, given as fraction, Repeat 1-3
[10] = Homo sapiens, NCI-H1975, read-out: Inhibitory efficacy, H1975 cells, 16uM, given as fraction, Repeat 1-3
[11] = Homo sapiens, NCI-H460, read-out: Inhibitory efficacy, H460 cells, 2uM, given as fraction, Repeat 1-3
[12] = Homo sapiens, NCI-H460, read-out: Inhibitory efficacy, H460 cells, 4uM, given as fraction, Repeat 1-3
[13] = Homo sapiens, NCI-H460, read-out: Inhibitory efficacy, H460 cells, 8uM, given as fraction, Repeat 1-3
[14] = Homo sapiens, NCI-H460, read-out: Inhibitory efficacy, H460 cells, 16uM, given as fraction, Repeat 1-3
[15] = Homo sapiens, A549, read-out: Inhibitory efficacy, A549 cells, 2uM, given as fraction, Repeat 1-3
[16] = Homo sapiens, A549, read-out: Inhibitory efficacy, A549 cells, 4uM, given as fraction, Repeat 1-3
[17] = Homo sapiens, A549, read-out: Inhibitory efficacy, A549 cells, 8uM, given as fraction, Repeat 1-3
[18] = Homo sapiens, A549, read-out: Inhibitory efficacy, A549 cells, 16uM, given as fraction, Repeat 1-3
[19] = 1uM, given as fraction, Repeat 1-3

Sequence of wild-type EGFR (P00533 25-1210): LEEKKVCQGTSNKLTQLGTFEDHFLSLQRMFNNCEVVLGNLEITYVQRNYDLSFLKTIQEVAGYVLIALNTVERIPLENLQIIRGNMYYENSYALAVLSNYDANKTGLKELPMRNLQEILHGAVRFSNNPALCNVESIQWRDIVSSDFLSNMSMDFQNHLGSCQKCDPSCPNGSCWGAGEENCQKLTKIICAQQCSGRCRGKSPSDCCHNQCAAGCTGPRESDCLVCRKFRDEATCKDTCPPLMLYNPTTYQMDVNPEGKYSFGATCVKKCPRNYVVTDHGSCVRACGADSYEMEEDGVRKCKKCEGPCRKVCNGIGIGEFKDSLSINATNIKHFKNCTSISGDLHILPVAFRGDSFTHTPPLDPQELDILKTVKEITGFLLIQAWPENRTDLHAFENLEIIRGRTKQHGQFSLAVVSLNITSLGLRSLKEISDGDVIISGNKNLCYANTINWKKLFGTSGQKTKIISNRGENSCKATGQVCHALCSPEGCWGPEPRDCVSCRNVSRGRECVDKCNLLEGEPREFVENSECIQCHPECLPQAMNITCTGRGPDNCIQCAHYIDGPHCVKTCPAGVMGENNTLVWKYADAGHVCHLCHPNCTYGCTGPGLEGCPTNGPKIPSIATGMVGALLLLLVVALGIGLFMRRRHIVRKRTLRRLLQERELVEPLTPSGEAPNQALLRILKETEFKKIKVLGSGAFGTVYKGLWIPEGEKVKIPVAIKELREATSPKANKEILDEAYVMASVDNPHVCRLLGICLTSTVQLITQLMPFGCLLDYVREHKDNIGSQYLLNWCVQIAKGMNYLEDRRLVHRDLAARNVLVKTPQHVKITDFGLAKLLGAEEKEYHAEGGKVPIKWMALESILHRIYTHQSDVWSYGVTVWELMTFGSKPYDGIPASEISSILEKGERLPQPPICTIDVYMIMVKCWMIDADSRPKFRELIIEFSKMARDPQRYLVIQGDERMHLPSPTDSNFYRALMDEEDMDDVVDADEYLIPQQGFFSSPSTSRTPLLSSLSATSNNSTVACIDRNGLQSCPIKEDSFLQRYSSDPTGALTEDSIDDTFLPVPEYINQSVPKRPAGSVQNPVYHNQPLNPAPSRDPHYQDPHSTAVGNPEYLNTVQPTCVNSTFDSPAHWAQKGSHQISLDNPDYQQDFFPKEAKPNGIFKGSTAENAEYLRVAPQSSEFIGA

Structure (SMILES): COCCOc1cc2ncnc(Nc3cccc(-c4cn(-c5ccccc5OC)nn4)c3)c2cc1OCCOC [e11, [6,7-Bis-(2-methoxy-ethoxy)-quinazolin-4-yl]-{3-[1-(2-methoxy-phenyl)-1H-[1,2,3]triazol-4-yl]-phenyl}-amine]
- IC50 (PC-9 cells): 16 ± 1.04 µM
- inhibition at 8 µM (PC-9 cells): 27.4%
- inhibition at 16 µM (PC-9 cells): 46.7%
- Inhibitory efficacy (PC-9 cells; PC-9, 8uM, 8 µM): 0.2959 and 0.2658
- Inhibitory efficacy (PC-9 cells; PC-9, 16uM, 16 µM): 0.4848 and 0.4258
- IC50 (wild-type EGFR; IC50 (μM) EGFR): 49.4 µM
- inhibition at 100 fM (wild-type EGFR): 0%
- inhibition at 30 pM (wild-type EGFR; concentration 0.03 nM): 4.93%
- Inhibition (wild-type EGFR; [1]): 3.3195
- inhibition at 0.0003 µM (wild-type EGFR; concentration 0.3 nM): 5.78%
- Inhibition (wild-type EGFR; [2]): 3.734
- inhibition at 0.003 µM (wild-type EGFR; concentration 3 nM): 6.42%
- Inhibition (wild-type EGFR; concentration 3 nM, 0.003 µM): 4.357
- inhibition at 0.03 µM (wild-type EGFR; concentration 30 nM): 7.71%
- Inhibition (wild-type EGFR; concentration 30 nM, 0.03 µM): 6.432
- inhibition at 0.3 µM (wild-type EGFR; concentration 300 nM): 13.1%
- Inhibition (wild-type EGFR; concentration 300 nM, 0.3 µM): 8.091
- inhibition at 3 µM (wild-type EGFR; concentration 3000 nM): 13.3%
- Inhibition (wild-type EGFR; concentration 3000 nM, 3 µM): 12.4481
- inhibition at 30 µM (wild-type EGFR; concentration 30000 nM): 46.9%
- Inhibition (wild-type EGFR; concentration 30000 nM, 30 µM): 45.2282
- A450 (wild-type EGFR; concentration 0.0001 nM): 0.614 and 0.641
- A450 (wild-type EGFR; concentration 0.03 nM): 0.591 and 0.625
- A450 (wild-type EGFR; concentration 0.3 nM): 0.587 and 0.623
- A450 (wild-type EGFR; concentration 3 nM): 0.584 and 0.62
- A450 (wild-type EGFR; concentration 30 nM): 0.578 and 0.61
- A450 (wild-type EGFR; concentration 300 nM): 0.553 and 0.602
- A450 (wild-type EGFR; concentration 3000 nM): 0.552 and 0.581
- A450 (wild-type EGFR; concentration 30000 nM): 0.395 and 0.423
- Inhibitory efficacy (H1975 cells; [3]): 0.257 and 0.2168
- Inhibitory efficacy (H1975 cells; [4]): 0.213 and 0.192
- Inhibitory efficacy (H1975 cells; [5]): 0.4311 and 0.3814
- Inhibitory efficacy (H1975 cells; [6]): 0.6071 and 0.5938
- IC50 (H1975 cells; Homo sapiens): 10.8 ± 1.57 µM
- inhibition at 2 µM (H1975 cells; [7]): 29.1%
- inhibition at 4 µM (H1975 cells; [8]): 32.2%
- inhibition at 8 µM (H1975 cells; [9]): 49.2%
- inhibition at 16 µM (H1975 cells; [10]): 59.9%
- melting point: 87 to 90 °C
- Inhibitory efficacy (H460 cells; [3]): 0.2801 and 0.2884
- Inhibitory efficacy (H460 cells; [4]): 0.5058 and 0.5573
- Inhibitory efficacy (H460 cells; [5]): 0.6543 and 0.6301
- Inhibitory efficacy (H460 cells; [6]): 0.6649 and 0.6664
- IC50 (H460 cells; Homo sapiens): 4.89 ± 0.23 µM
- inhibition at 2 µM (H460 cells; [11]): 34.4%
- inhibition at 4 µM (H460 cells; [12]): 48.9%
- inhibition at 8 µM (H460 cells; [13]): 64.7%
- inhibition at 16 µM (H460 cells; [14]): 69.5%
- Inhibitory efficacy (A549 cells; [3]): 0.1633 and 0.2142
- Inhibitory efficacy (A549 cells; [4]): 0.2462 and 0.3291
- Inhibitory efficacy (A549 cells; [5]): 0.4514 and 0.4662
- Inhibitory efficacy (A549 cells; [6]): 0.7059 and 0.6624
- IC50 (A549 cells; Homo sapiens): 8.4 ± 0.29 µM
- inhibition at 2 µM (A549 cells; [15]): 20.1%
- inhibition at 4 µM (A549 cells; [16]): 25%
- inhibition at 8 µM (A549 cells; [17]): 52.7%
- inhibition at 16 µM (A549 cells; [18]): 68.7%

Structure (SMILES): COCCOc1cc2ncnc(Nc3cccc(-c4cn(-c5ccc(C)cc5O)nn4)c3)c2cc1OCCOC [e18, 2-(4-{3-[6,7-Bis-(2-methoxy-ethoxy)-quinazolin-4-ylamino]-phenyl}-[1,2,3]triazol-1-yl)-5-methyl-phenol]
- IC50 (PC-9 cells): 15.2 ± 0.75 µM
- inhibition at 8 µM (PC-9 cells): 25.2%
- inhibition at 16 µM (PC-9 cells): 48.5%
- Inhibitory efficacy (PC-9 cells; PC-9, 8uM, 8 µM): 0.3051 and 0.2654
- Inhibitory efficacy (PC-9 cells; PC-9, 16uM, 16 µM): 0.5238 and 0.4787
- inhibition at 100 fM (wild-type EGFR): 0%
- inhibition at 30 pM (wild-type EGFR; concentration 0.03 nM): 5.9%
- Inhibition (wild-type EGFR; [1]): 7.547
- inhibition at 0.0003 µM (wild-type EGFR; concentration 0.3 nM): 9.63%
- Inhibition (wild-type EGFR; [2]): 10.2916
- inhibition at 0.003 µM (wild-type EGFR; concentration 3 nM): 16.9%
- Inhibition (wild-type EGFR; concentration 3 nM, 0.003 µM): 12.693
- inhibition at 0.03 µM (wild-type EGFR; concentration 30 nM): 21.1%
- Inhibition (wild-type EGFR; concentration 30 nM, 0.03 µM): 13.2075
- inhibition at 0.3 µM (wild-type EGFR; concentration 300 nM): 25.3%
- Inhibition (wild-type EGFR; concentration 300 nM, 0.3 µM): 17.1527
- inhibition at 3 µM (wild-type EGFR; concentration 3000 nM): 26.1%
- Inhibition (wild-type EGFR; concentration 3000 nM, 3 µM): 22.2985
- inhibition at 30 µM (wild-type EGFR; concentration 30000 nM): 68.9%
- Inhibition (wild-type EGFR; concentration 30000 nM, 30 µM): 69.1252
- A450 (wild-type EGFR; concentration 0.0001 nM): 0.879 and 0.798
- A450 (wild-type EGFR; concentration 0.03 nM): 0.841 and 0.754
- A450 (wild-type EGFR; concentration 0.3 nM): 0.817 and 0.738
- A450 (wild-type EGFR; concentration 3 nM): 0.77 and 0.724
- A450 (wild-type EGFR; concentration 30 nM): 0.743 and 0.721
- A450 (wild-type EGFR; concentration 300 nM): 0.716 and 0.698
- A450 (wild-type EGFR; concentration 3000 nM): 0.711 and 0.668
- A450 (wild-type EGFR; concentration 30000 nM): 0.435 and 0.395
- IC50 (wild-type EGFR; read-out: IC50 (μM) EGFR): 12.4 µM
- Inhibitory efficacy (H1975 cells; [19]): 0.2067 and 0.1552
- Inhibitory efficacy (H1975 cells; [3]): 0.2381 and 0.2095
- Inhibitory efficacy (H1975 cells; [4]): 0.3038 and 0.341
- Inhibitory efficacy (H1975 cells; [5]): 0.4524 and 0.4681
- Inhibitory efficacy (H1975 cells; [6]): 0.6095 and 0.6024
- IC50 (H1975 cells; Homo sapiens): 10 ± 0.69 µM
- inhibition at 1 µM (H1975 cells; Homo sapiens, NCI-H1975, read-out: Inhibitory efficacy, H1975 cells, 1uM, given as fraction, Repeat 1-3): 16.5%
- inhibition at 2 µM (H1975 cells; [7]): 26.2%
- inhibition at 4 µM (H1975 cells; [8]): 33.4%
- inhibition at 8 µM (H1975 cells; [9]): 46.7%
- inhibition at 16 µM (H1975 cells; [10]): 55.4%
- melting point: 100 to 103 °C
- Inhibitory efficacy (H460 cells; [19]): 0.2332 and 0.2742
- Inhibitory efficacy (H460 cells; [3]): 0.4443 and 0.3282
- Inhibitory efficacy (H460 cells; [4]): 0.5163 and 0.5814
- Inhibitory efficacy (H460 cells; [5]): 0.5774 and 0.6654
- Inhibitory efficacy (H460 cells; [6]): 0.7445 and 0.6414
- IC50 (H460 cells; Homo sapiens): 4.3 ± 0.62 µM
- inhibition at 1 µM (H460 cells; Homo sapiens, NCI-H460, read-out: Inhibitory efficacy, H460 cells, 1uM, given as fraction, Repeat 1-3): 17.1%
- inhibition at 2 µM (H460 cells; [11]): 27.5%
- inhibition at 4 µM (H460 cells; [12]): 55.5%
- inhibition at 8 µM (H460 cells; [13]): 55%
- inhibition at 16 µM (H460 cells; [14]): 72.3%
- Inhibitory efficacy (A549 cells; [19]): 0.3234 and 0.3188
- Inhibitory efficacy (A549 cells; [3]): 0.4627 and 0.499
- Inhibitory efficacy (A549 cells; [4]): 0.5875 and 0.5347
- Inhibitory efficacy (A549 cells; [5]): 0.7578 and 0.7459
- Inhibitory efficacy (A549 cells; [6]): 0.8733 and 0.8713
- IC50 (A549 cells; Homo sapiens): 2.53 ± 0.2 µM
- inhibition at 1 µM (A549 cells; Homo sapiens, A549, read-out: Inhibitory efficacy, A549 cells, 1uM, given as fraction, Repeat 1-3): 24.6%
- inhibition at 2 µM (A549 cells; [15]): 37.2%
- inhibition at 4 µM (A549 cells; [16]): 66.7%
- inhibition at 8 µM (A549 cells; [17]): 73.2%
- inhibition at 16 µM (A549 cells; [18]): 88.9%
